Measured values: article PMC7774954, “Interactomic affinity profiling by holdup assay: Acetylation and distal residues impact the PDZome-binding specificity of PTEN phosphatase” (PLoS ONE, 2020)

System: 266 human PDZ domains (PDZome)
Experiment: Holdup assay (chromatographic retention, PDZome-binding profile, BI)
Parameters: key to maximal BI / Max BI / BI: binding intensity: 0.00 = no binding, 1.00 = maximal binding; Log(Kd): unit not given here
Description: The holdup method is a chromatographic approach in solution developed in our group that allows to measure the binding strength of a peptide, attached to a resin, against a library of domains of a same family. We initially proposed this method to explore the interaction between PBM peptides and the human PDZ domains. Briefly, a soluble cell lysate containing individually overexpressed PDZ domain is incubated until equilibrium with a calibrated amount of streptavidin-resin saturated either with the target biotinylated PBM peptide or with biotin as a reference. The flow-throughs containing the unbound protein fraction are recovered by filtration and loaded on a capillary electrophoresis instrument to quantify the amount of remaining free PDZ. The stronger the steady-state depletion of the PDZ domain in the flow-through as compared to the reference, the stronger the PDZ/PBM binding interaction. The assay is particularly suited to quantitatively evaluate and compare large numbers of interactions. This method delivers, for each PBM/PDZ pair, a "binding intensity" (BI), whose value can in principle range from 0.00 (no binding event detected) to 1.00 (maximal binding event). The approach has been automated and the human PDZ library was recently extended to the complete 266 PDZ domains known in human proteome. […] The high accuracy and efficiency of the holdup assay have been validated previously. Very recently, a manual version of the holdup assay with purified samples and using widespread benchtop equipment has been implemented and has proven to be reliable.
The 266 PDZ domains that constitute the PDZ library (“PDZome V.2”) used in the present work were produced using constructs with optimized boundaries as described previously. All the genes were fused to Maltose-Binding Protein (MBP) or Thioredoxin (THR) tag often used to facilitate the solubilisation of the over-expressed protein, by cloning them into the pETG41A or pETG20A plasmid, respectively. […] The expressed tag-PDZ concentrations were quantified using capillary gel electrophoresis and cell lysates were diluted to reach approximately 5 μM tag-PDZ before freezing in 96-well plates. A detailed protocol of the PDZ library production, expression and benchmarking can be found in [32]. PDZ domains are named according to their originating protein name followed by the PDZ number (e.g. NHERF1-1 as the first PDZ domain of the NHERF1 protein).
The holdup assay was performed on a Tecan freedom Evo200 robot with 384-well plates in singlicate for the three 11-mer PTEN variants and the 13-mer PTEN peptide as described in [31, 32]. Briefly, prior to interaction assay, 2.5 μL of streptavidin resin was saturated in each well with 20 μL of biotinylated PBM peptides (42 μM) and then washed twice with an excess of free biotin, while the reference resin was incubated only with biotin. Right before the holdup experiment, the PDZ library was spiked with an internal standard of lysozyme. Then, the biotin- or PBM-saturated resin was incubated, each in a distinct well of a 384-well plate, with complete cell lysates diluted so that the concentration of the tag-PDZ present in the crude extract is adjusted at 4 μM. After a sufficient time to reach complex equilibrium (15 min.), a fast and mild filtration step is performed and the tag-PDZ concentrations were measured by capillary electrophoresis instrument (LabChip GXII, PerkinElmer, Massachusets, USA). Standard markers were used to convert migration time into molecular weight on the LabChip software and inappropriate molecular weight markers were corrected or excluded.
Holdup data quality check and processing […]

[1] = PDZ domain PARD3-1, first of two lines so named (r186)

`CC[C@H](C)[C@H](NC(=O)[C@H](CCC(N)=O)NC(=O)[C@@H](NC(=O)[C@H](Cc1c[nH]cn1)NC(=O)[C@H](CCC(N)=O)NC(=O)[C@H](CC(=O)O)NC(=O)[C@H](CCC(=O)O)NC(=O)[C@H](CC(=O)O)NC(=O)CCC(=O)NCCCOCCOCCOCCCNC(=O)CCCC[C@@H]1SC[C@@H]2NC(=O)N[C@@H]21)[C@@H](C)O)C(=O)N[C@H](C(=O)N[C@@H](CCCCN)C(=O)N[C@H](C(=O)O)C(C)C)[C@@H](C)O` [PTEN_11] showed a BI (PDZ domain MPDZ-2) of -0.043, a BI (PDZ domain MPDZ-3) of 0.079 and a BI (PDZ domain MPDZ-4) of -0.037. It also gave a BI (PDZ domain MPDZ-5) of 0.085, a BI (PDZ domain MPDZ-6) of -0.029 and a BI (PDZ domain MPDZ-7) of 0.154. The BI (PDZ domain MPDZ-8) was 0.119, the BI (PDZ domain MPDZ-9 (gene NHERF2, 2)) was -0.075 and the BI (PDZ domain MPP1-1) was -0.033. The BI (PDZ domain MPP2-1) was -0.076, the BI (PDZ domain MPP3-1) was 0.035 and the BI (PDZ domain MPP4-1) was 0.041. For the same molecule, the BI (PDZ domain MPP5-1) was -0.091, the BI (PDZ domain MPP6-1) was -0.062 and the BI (PDZ domain MPP7-1) was 0.034. It also gave a BI (PDZ domain NHERF1-2) of 0.094, a BI (PDZ domain NHERF3-1) of 0.153 and a BI (PDZ domain NHERF3-2) of 0.063. For the same molecule, the BI (PDZ domain NHERF3-3) was 0.131, the BI (PDZ domain NHERF3-4) was -0.013 and the BI (PDZ domain NHERF4-1) was -0.04. It also gave a BI (PDZ domain NHERF4-2) of -0.071, a BI (PDZ domain NHERF4-3) of 0.06 and a BI (PDZ domain NHERF4-4) of -0.01. The BI (PDZ domain NOS1-1) was 0.016, the BI [1] was 0.172 and the “Log(Kd)” value [1] was 3.7949. It also gave a BI (PDZ domain PARD3-1, second of two lines so named (r187)) of 0.048, a BI (PDZ domain PARD3B-1) of -0.032 and a BI (PDZ domain PARD3B-2) of 0.045. The BI (PDZ domain PARD3B-3) was -0.026, the BI (PDZ domain PARD6G-1) was -0.088 and the BI (PDZ domain PDLIM2-1) was -0.001. The BI (PDZ domain PDLIM3-1) was -0.059, the BI (PDZ domain PDLIM4-1) was -0.02 and the BI (PDZ domain PDLIM5-1) was 0.07. For the same molecule, the BI (PDZ domain PDLIM7-1) was 0.032, the BI (PDZ domain PDZD2-1) was -0.006 and the BI (PDZ domain PDZD2-3) was -0.072. The BI (PDZ domain PDZD2-4) was -0.02, the BI (PDZ domain PDZD2-5) was 0.028 and the BI (PDZ domain PDZD2-6) was 0.115. It also gave a BI (PDZ domain PDZD4-1) of 0.019, a BI (PDZ domain PDZD7-1) of -0.032 and a BI (PDZ domain PDZD7-2) of 0.087. For the same molecule, the BI (PDZ domain PDZD7-3) was 0.658, the BI (PDZ domain PDZD8-1) was -0.04 and the BI (PDZ domain PDZD11-1) was -0.013. The BI (PDZ domain PDZRN4-1) was 0, the BI (PDZ domain PDZRN4-2) was 0.005 and the BI (PDZ domain PREX1-1) was 0.099. The BI (PDZ domain PREX2-2) was -0.021, the BI (PDZ domain PRX-1) was -0.1 and the BI (PDZ domain PSCDBP-1) was -0.154. The BI (PDZ domain PSMD9-1) was -0.01, the BI (PDZ domain PTPN3-1) was 0.075 and the BI (PDZ domain PTPN4-1) was 0.017. It also gave a BI (PDZ domain PTPN13-1) of 0.143, a BI (PDZ domain PTPN13-5) of -0.041 and a BI (PDZ domain RAPGEF2-1) of -0.045. The BI (PDZ domain RHPN2-1) was -0.079, the BI (PDZ domain SCRIB-1) was 0.062 and the BI (PDZ domain SCRIB-2) was -0.183. It also gave a BI (PDZ domain SCRIB-4) of 0.061, a BI (PDZ domain SHANK1-1) of 0.251 and a BI (PDZ domain SHANK2-1) of 0.071. For the same molecule, the BI (PDZ domain SHANK3-1) was 0.106, the BI (PDZ domain SHROOM2-1) was 0.022 and the BI (PDZ domain SHROOM4-1) was -0.001. It also gave a BI (PDZ domain SIPA1L2-1) of 0.019, a BI (PDZ domain SNTA1-1) of 0.18 and a BI (PDZ domain SNTB1-1) of 0.156. It also gave a BI (PDZ domain SNTG1-1) of 0.078, a BI (PDZ domain SNTG2-1) of 0.056 and a BI (PDZ domain STXB4-1) of -0.026. For the same molecule, the BI (PDZ domain SYNJ2BP-1) was 0.089, the BI (PDZ domain SYNP2-1) was -0.045 and the BI (PDZ domain SYNPO2L-1) was -0.053. The BI (PDZ domain TIAM1-1) was 0.032, the BI (PDZ domain TIAM2-1) was 0.033 and the BI (PDZ domain TJP1-1) was 0.119. The BI (PDZ domain TJP1-2) was -0.039, the BI (PDZ domain TJP2-3) was 0.064 and the BI (PDZ domain TJP3-1) was 0.015. It also gave a BI (PDZ domain TJP3-2) of 0.017, a BI (PDZ domain TX1B3-1) of -0.022 and a BI (PDZ domain USH1C-1) of -0.104. For the same molecule, the “number of PDZ domains identified as potential binders (BI>0.20)” value (holdup, singlicate, threshold BI>0.20) was 19 PDZ domains, the “maximal BI” value (holdup, singlicate, highest BI in the PDZome profile, BI standard error ~0.07) was 0.71 and the “binding of several PDZ domains (in words)” value (including several ones from MAGI and NHERF) was “detectably bound”. For the same molecule, the “Max BI” value (maximum over PDZome) was 0.71.
